Read-outs that look alike come from different tables or passages of the source.
Tests used:
[1] = test system: T cells from Patient #6211; test: γIFN response of serially expanded T cells from Patient #6211 restimulated with GAD65 peptides and autologous APC; format: cell-based, human; settings: T cells from Patient #6211 expanded in serial culture, autologous APC
Procedure: 10^5 thawed and irradiated DRB1*0404, DRB1*0405, or control (non-DR4) peripheral blood lymphocytes (PBL) in a volume of 100 μl were added to wells of 96 V-bottom plates containing peptide or medium and allowed to incubate for 2-3 hours at which time 4×10^4 T cells were added for a total volume of 200 μl-250 μl. At 20-24 hours of coculture, supernatants were harvested for cytokine determination and the wells replenished with fresh medium. At 48 hours, wells were radiolabeled with 1 μCi H^3-thymidine and cultured for an additional 18 hr. The plates were harvested on a TomTec Manual Mach III harvester and incorporated thymidine (as cpm) was determined by liquid spectroscopy on a Wallac Microbeta LSC.
Traditional sandwich ELISA were performed to test the supernatants for human γIFN, using matched antibody sets obtained from Endogen. The plates were read at 405 nm on a Microplate reader (Bio-Tek). The concentration of cytokine was estimated from standard curves using linear regression.
T cells from Patient #6211 were expanded in serial culture by restimulation with GAD65 peptides incubated with autologous APC. Specific T cell responses were present for both peptides 553-572 (53 pg/ml γIFN) and 555-567 (51 pg/ml γIFN), but not peptide 569-585 (5 pg/ml γIFN), localizing the minimal epitope to the 555-567 region. T cell clones were derived by expansion of this culture; proliferation, and cytokine response profiles for CD4^+ T cell clones BRI.4-10 and BRI.4-11 are shown in FIGS. 1A and 1B.

T cell clone BRI.4-11 = test: prepulse antagonism assay, response to GAD65 555-567, clone BRI.4-11; format: cell-based, human
DR4 molecules = DR4 molecules (Homo sapiens, UniProt P01903+P01911, A100K/A169T/F76Y/I96L/K127E/L162R/M171V/N62H/P40V/Q125Y/R42H/S133A/S149N/S66Y/V115G/V209L/W38E); test: standard DR4-peptide fluorescent binding assay
T cell clone BRI.4-10 = test: prepulse antagonism assay, response to GAD65 555-567, clone BRI.4-10; format: cell-based, human
DR4 = settings: Wicker et al, 1996; cited from earlier work

553-572: GAD65 peptide of residues 553-572 (KVNFFRMVISNPAATHQDID; UniProt Q05329 553-572, looked up, fragment)
γIFN, specific T cell response [1]: 53 pg/mL

CSCC[C@H](NC(=O)[C@H](CCCNC(=N)N)NC(=O)[C@H](Cc1ccccc1)NC(=O)[C@H](Cc1ccccc1)NC(=O)[C@@H](N)CC(N)=O)C(=O)N[C@H](C(=O)N[C@@H](CC(C)C)C(=O)N[C@@H](CO)C(=O)N[C@@H](CC(N)=O)C(=O)N1CCC[C@H]1C(=O)N[C@@H](C)C(=O)N[C@@H](C)C(=O)N[C@H](C(=O)O)[C@@H](C)O)C(C)C [561 L]
antagonism of proliferative response (in words) (T cell clone BRI.4-11; clone BRI.4-11, highest concentration tested, APC pre-pulsed with agonist peptide): partially antagonized

569-585: GAD65 peptide of residues 569-585 (QDIDFLIEEIERLGQDL; UniProt Q05329 569-585, looked up, fragment)
γIFN, specific T cell response [1]: 5 pg/mL

CSCC[C@H](NC(=O)[C@H](CCCNC(=N)N)NC(=O)[C@H](Cc1ccccc1)NC(=O)[C@H](Cc1ccccc1)NC(=O)[C@@H](N)CC(N)=O)C(=O)N[C@H](C(=O)N[C@@H](CCSC)C(=O)N[C@@H](CO)C(=O)N[C@@H](CC(N)=O)C(=O)N1CCC[C@H]1C(=O)N[C@@H](C)C(=O)N[C@@H](C)C(=O)N[C@H](C(=O)O)[C@@H](C)O)C(C)C [561 M]
IC50 (DR4 molecules): 400 nM
reduction of T cell proliferative response (T cell clone BRI.4-10; clone BRI.4-10, APC pre-pulsed with agonist peptide 555-567): 80%
antagonism of γIFN cytokine response (in words) (T cell clone BRI.4-10; clone BRI.4-10, APC pre-pulsed with agonist peptide 555-567, FIG. 2B): similarly antagonized
antagonism of T cell responses (proliferation and γIFN, FIGS. 2C and 2D) (T cell clone BRI.4-11; clone BRI.4-11, APC pre-pulsed with agonist peptide 555-567): more than 90%

CC[C@H](C)[C@H](NC(=O)[C@@H](NC(=O)[C@H](CCSC)NC(=O)[C@H](CCCNC(=N)N)NC(=O)[C@H](Cc1ccccc1)NC(=O)[C@H](Cc1ccccc1)NC(=O)[C@@H](N)CC(N)=O)C(C)C)C(=O)N[C@@H](CO)C(=O)N[C@@H](CC(N)=O)C(=O)N1CCC[C@H]1C(=O)N[C@@H](C)C(=O)N[C@@H](C)C(=O)N[C@H](C(=O)O)[C@@H](C)O [555-567]
γIFN, specific T cell response [1]: 51 pg/mL

VNFFRMVISNPAATHQD [GAD 554-570]
IC50 (DR4 molecules; read-out: peptide binding: concentration of peptide giving 50% inhibition of a standard DR4-peptide fluorescent binding assay): 600 nM

554-566: GAD65 554-566 sequence, DR4-binding peptide of Wicker et al (VNFFRMVISNPAA; UniProt Q05329 554-566, looked up, fragment)
DR4 binding avidity among GAD65 peptides (DR4): most avid binding peptide identified

From US20030176351A1, “Peptides and peptide analogues designed from a diabetes-associated autoantigen, and methods for their use in the treatment and prevention of diabetes” (priority 1999, published 2003)
